Results: ChEMBL document CHEMBL1124228, “Synthesis of (aryloxy)alkylamines. 1. Novel antisecretory agents with H+K+-ATPase inhibitory activity” (J Med Chem, 1988)

Key:
[1] = target: T1, Potassium-transporting ATPase (Homo sapiens, UniProt P20648); experiment: Antisecretory activity evaluated by the inhibition of 14C -AP uptake in isolated rabbit parietal cells stimulated by exogenous histamine; assay type: functional, Oryctolagus cuniculus
Rattus norvegicus [2] = experiment: Percent inhibition of total acid secretion in pylorus-ligated rats at an id dose of 40 mg/kg; assay type: functional; conditions: route intraduodenal
[3] = target: T1, Potassium-transporting ATPase; experiment: (§1) Antisecretory activity evaluated by the inhibition of 14C -AP uptake in isolated rabbit parietal cells stimulated by dibutyryl cyclic adenosine 3', 5' -monophosphate (dcAMP); assay type: functional, Oryctolagus cuniculus
Rattus norvegicus [4] = experiment: Percent inhibition of total acid secretion in pylorus-ligated rats at an id dose of 20 mg/kg; assay type: functional; conditions: route intraduodenal
Rattus norvegicus [5] = experiment: Effective dose required for the inhibition of total acid secretion in pylorus-ligated rats at 20 mg/kg; assay type: functional
Rattus norvegicus [6] = species on record: Rattus norvegicus; experiment: Effective dose required for the inhibition of total acid secretion in pylorus-ligated rats; assay type: functional
Rattus norvegicus [7] = experiment: Percent inhibition of total acid secretion in pylorus-ligated rats at an id dose of 10 mg/kg; assay type: functional; conditions: route intraduodenal
[8] = target: T2, Potassium-transporting ATPase (Homo sapiens, UniProt P20648+P51164); experiment: as §1; assay type: functional, Oryctolagus cuniculus; conditions: target entry is the homologue from another species
T2 sequence (P20648 whole entry): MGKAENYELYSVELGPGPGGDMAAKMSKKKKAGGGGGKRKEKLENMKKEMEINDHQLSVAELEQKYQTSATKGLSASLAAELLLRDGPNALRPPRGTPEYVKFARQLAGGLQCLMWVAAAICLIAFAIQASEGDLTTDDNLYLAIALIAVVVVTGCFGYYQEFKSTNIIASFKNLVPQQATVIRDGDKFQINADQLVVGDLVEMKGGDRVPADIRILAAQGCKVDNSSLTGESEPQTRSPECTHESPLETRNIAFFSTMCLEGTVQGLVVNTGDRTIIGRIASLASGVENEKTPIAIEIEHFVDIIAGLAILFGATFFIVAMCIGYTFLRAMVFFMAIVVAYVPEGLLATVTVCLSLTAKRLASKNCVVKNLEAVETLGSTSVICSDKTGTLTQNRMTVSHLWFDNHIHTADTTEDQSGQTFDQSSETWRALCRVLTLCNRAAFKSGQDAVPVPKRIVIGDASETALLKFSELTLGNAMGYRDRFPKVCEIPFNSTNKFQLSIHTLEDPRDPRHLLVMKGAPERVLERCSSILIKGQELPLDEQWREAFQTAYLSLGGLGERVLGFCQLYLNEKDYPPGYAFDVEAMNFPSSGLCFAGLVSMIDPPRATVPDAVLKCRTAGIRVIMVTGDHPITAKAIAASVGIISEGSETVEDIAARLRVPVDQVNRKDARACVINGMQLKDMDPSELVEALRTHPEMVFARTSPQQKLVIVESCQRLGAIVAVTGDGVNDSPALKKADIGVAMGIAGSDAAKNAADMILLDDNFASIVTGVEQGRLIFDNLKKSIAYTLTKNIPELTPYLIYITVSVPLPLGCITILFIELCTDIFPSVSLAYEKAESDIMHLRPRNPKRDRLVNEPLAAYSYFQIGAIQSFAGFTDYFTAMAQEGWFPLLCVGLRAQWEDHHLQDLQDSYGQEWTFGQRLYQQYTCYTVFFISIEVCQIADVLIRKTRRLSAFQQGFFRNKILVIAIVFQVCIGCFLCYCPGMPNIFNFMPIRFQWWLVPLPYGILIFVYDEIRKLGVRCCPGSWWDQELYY
T2 sequence (P51164 whole entry): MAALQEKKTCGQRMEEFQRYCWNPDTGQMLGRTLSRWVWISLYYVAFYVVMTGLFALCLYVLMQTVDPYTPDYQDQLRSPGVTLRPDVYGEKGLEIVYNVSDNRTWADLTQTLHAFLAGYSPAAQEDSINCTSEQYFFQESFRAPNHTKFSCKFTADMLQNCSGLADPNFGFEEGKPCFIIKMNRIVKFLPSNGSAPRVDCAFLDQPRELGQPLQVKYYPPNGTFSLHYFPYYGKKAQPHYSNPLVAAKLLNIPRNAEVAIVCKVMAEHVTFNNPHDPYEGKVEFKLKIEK

Rattus norvegicus [9] = experiment: Effective dose required for the inhibition of total acid secretion in pylorus-ligated rats at 40 mg/kg; assay type: functional
[10] = target: T2, Potassium-transporting ATPase; experiment: Evaluated for the inhibition of H+/K+ ATPase enzyme from fundic mucosa of white rabbits at 100 uM; assay type: protein-complex assay; conditions: Oryctolagus cuniculus, target entry is the homologue from another species
[11] = target entry is the homologue from another species

| Compound | IC50 [1, 11] | IC50 [3, 11] | inhibition in vivo at 20 mg/kg (Rattus norvegicus [4]) | further results |
| --- | --- | --- | --- | --- |
| CCCN(CCC)CCCOc1ccc(/C=C/c2nc3ccccc3s2)cc1 | 210 nM | 140 nM |  | inhibition in vivo at 20 mg/kg (Rattus norvegicus [5]): 42% |
| Cl.O.c1ccc(-c2nc(-c3ccc(OCCCn4ccnc4)cc3)cs2)cc1 | 80 nM | 20 nM |  | ED50 (Rattus norvegicus [5]): 5.1 mg/kg; inhibition in vivo at 20 mg/kg (Rattus norvegicus [5]): 91% |
| CNC(=C[N+](=O)[O-])NCCSCc1ccc(CN(C)C)o1 [RANITIDINE] | 40 nM |  |  | ED50 (Rattus norvegicus [5]): 9.1 mg/kg |
| CCN(CC)CCCOc1ccc(/C=C/c2nc3ccccc3o2)cc1 | 320 nM | 980 nM |  | inhibition in vivo at 40 mg/kg (Rattus norvegicus [2]): 54% |
| CCCN(CCC)CCCCOc1ccc(/C=C/c2nc3ccccc3s2)cc1.Cl.O | 30 nM | 120 nM |  | ED50 (Rattus norvegicus [6]): 13.6 mg/kg; inhibition in vivo at 40 mg/kg (Rattus norvegicus [2]): 93% |
| CCCN(CCC)CCCOc1ccc(/C=C/c2nc3ccccc3o2)cc1 | 220 nM | 350 nM | 77% |  |
| CCN(CC)CCCCOc1ccc(/C=C/c2nc3ccccc3s2)cc1 | 180 nM | 350 nM | 52% |  |
| CCCCN(CCCC)CCOc1ccc(/C=C/c2nc3ccccc3o2)cc1 | 260 nM | 540 nM | 43% |  |
| CCCN(CCC)CCCCOc1ccc(/C=C/c2nc3ccccc3o2)cc1.Cl | 390 nM | 110 nM | 90% | ED50 (Rattus norvegicus [6]): 11.5 mg/kg |
| c1ccc(-c2nc(-c3ccc(OCCCn4ccnn4)cc3)cs2)cc1 | 10000 nM |  |  | inhibition in vivo at 10 mg/kg (Rattus norvegicus [7]): 72% |
| COc1ccc2[nH]c([S+]([O-])Cc3ncc(C)c(OC)c3C)nc2c1 (stereo not given) [OMEPRAZOLE] |  |  |  | ED50 (Rattus norvegicus [5]): 7.1 mg/kg |
| FC(F)(F)c1ccc(-c2nc(-c3ccc(OCCCn4ccnc4)cc3)cs2)cc1 | 370 nM | 620 nM | 27% |  |
| C(=C\c1nc2ccccc2o1)/c1ccc(OCCCCCn2ccnc2)cc1 | 280 nM | 230 nM | 45% |  |
| CCN(CC)CCCOc1ccc(/C=C/c2nc3ccccc3s2)cc1 | 370 nM | 150 nM |  | inhibition in vivo at 40 mg/kg (Rattus norvegicus [2]): 71% |
| CCCCN(CCCC)CCCOc1ccc(/C=C/c2nc3ccc(OC)cc3s2)cc1 | 260 nM | 460 nM | 31% |  |
| C(=C\c1nc2ccccc2o1)/c1ccc(OCCCCN2CCCC2)cc1 | 170 nM | 240 nM |  | inhibition in vivo at 40 mg/kg (Rattus norvegicus [2]): 24% |
| C(=C\c1nc2ccccc2o1)/c1ccc(OCCCCn2ccnc2)cc1 | 270 nM | 330 nM | 14% |  |
| CCCCN(CCCC)CCCOc1ccc(/C=C/c2nc3cc(C)ccc3o2)cc1 | 260 nM | 340 nM |  | inhibition in vivo at 40 mg/kg (Rattus norvegicus [2]): 88% |
| c1ccc(-c2nc(-c3ccc(OCCCN4CCCC4)cc3)cs2)cc1 | 390 nM |  | 36% | IC50 [8]: < 10000 nM |
| C(=C\c1nc2ccccc2o1)/c1ccc(OCCCn2ccnc2)cc1 | 290 nM | 250 nM |  | inhibition in vivo at 20 mg/kg (Rattus norvegicus [5]): 26% |
| C(=C\c1nc2ccccc2o1)/c1ccc(OCCCCN2CCCCC2)cc1 | 170 nM | 330 nM | 42% |  |
| CCN(CC)CCCCOc1ccc(/C=C/c2nc3ccccc3o2)cc1 | 80 nM | 120 nM | 31% |  |
| c1ccc(-c2nc(-c3ccc(OCCCN4CCCCC4)cc3)cs2)cc1 | 110 nM | 50 nM | 46% |  |
| C(=C\c1nc2ccccc2s1)/c1ccc(OCCCCn2ccnc2)cc1 | 200 nM | 260 nM |  | inhibition in vivo at 40 mg/kg (Rattus norvegicus [2]): 17% |
| C(=C\c1nc2ccccc2s1)/c1ccc(OCCCCN2CCCC2)cc1 | 160 nM | 260 nM | 20% |  |
| CCCCN(CCCC)CCCOc1ccc(/C=C/c2nc3ccc(OC)cc3o2)cc1 | 80 nM | 50 nM |  | inhibition in vivo at 40 mg/kg (Rattus norvegicus [2]): 64% |
| C(=C\c1nc2ccccc2s1)/c1ccc(OCCCn2ccnc2)cc1 | 130 nM | 340 nM | 22% |  |
| C(=C\c1nc2ccccc2s1)/c1ccc(OCCCN2CCCCC2)cc1 | 180 nM | 210 nM | 32% |  |
| CN/C(=N\CCSCc1nc[nH]c1C)NC#N [CIMETIDINE] |  |  |  | IC50 [1]: 820 nM; ED50 (Rattus norvegicus [6]): 32 mg/kg; IC50 [3]: > 100000 nM |
| c1ccc(-c2nc(-c3ccc(OCCCCn4ccnc4)cc3)cs2)cc1 | 820 nM | 310 nM |  | inhibition in vivo at 40 mg/kg (Rattus norvegicus [2]): 31% |

Second part, led by results:

| IC50 [1, 11] | IC50 [3, 11] | Compound | inhibition in vivo at 20 mg/kg (Rattus norvegicus [4]) | further results |
| --- | --- | --- | --- | --- |
| 230 nM | 180 nM | CCCN(CCC)CCCOc1ccc(-c2csc(-c3ccccc3)n2)cc1 |  | inhibition in vivo at 40 mg/kg (Rattus norvegicus [2]): 94% |
| 800 nM | 2600 nM | CCCCN(CCCC)CCCOc1ccc(/C=C/c2nc3ccccc3n2C)cc1 | 1.6% |  |
| 250 nM | 2600 nM | CCCCN(CCCC)CCCOc1ccc(-c2nc3ccccc3s2)cc1 |  |  |
| 290 nM | 530 nM | CCCCN(CCCC)CCCOc1ccc(/C=C/c2nc3cc(C)ccc3s2)cc1 | 14% |  |
| 400 nM | 500 nM | CCCCN(CCCC)CCCOc1ccc(/C=C/c2nc3cc(Cl)ccc3s2)cc1 | 26% |  |
| 120 nM | 90 nM | CCN(CC)CCCOc1ccc(-c2csc(-c3ccccc3)n2)cc1 |  | inhibition in vivo at 40 mg/kg (Rattus norvegicus [2]): 82% |
| 2300 nM | 1500 nM | CCCCN(CCCC)CCCOc1ccc(/C=C/c2nc3ccccc3[nH]2)cc1 | 2.8% |  |
| 2100 nM | 1800 nM | CCCCN(CCCC)CCCOc1ccc(-c2csc(-c3ccc(Cl)cc3)n2)cc1 | 40% |  |
| 260 nM | 540 nM | CCCCN(CCCC)CCCOc1ccc(-c2csc(-c3cc(OC)cc(OC)c3)n2)cc1 | 17% |  |
| 1800 nM | 1200 nM | CCCCN(CCCC)CCCOc1ccc(-c2nc3ccccc3[nH]2)cc1 |  | inhibition in vivo at 40 mg/kg (Rattus norvegicus [2]): 24% |
| 2900 nM | 2000 nM | CCCCN(CCCC)CCCOc1ccc(-c2csc(-c3ccc(C(F)(F)F)cc3)n2)cc1 |  | inhibition in vivo at 40 mg/kg (Rattus norvegicus [2]): 40% |
| 430 nM | 600 nM | CCCCN(CCCC)CCOc1ccc(/C=C/c2nc3ccccc3s2)cc1 |  | inhibition in vivo at 20 mg/kg (Rattus norvegicus [5]): 14% |
| 1500 nM | 8400 nM | CCCCN(CCCC)CCCOc1ccc(-c2csc(C)n2)cc1 | 8% |  |
| 3300 nM | 3000 nM | c1cncc(-c2nc(-c3ccc(OCCCn4ccnc4)cc3)cs2)c1 | 53% |  |
| 310 nM | 350 nM | CCCCN(CCCC)CCOc1ccc(-c2csc(-c3ccccc3)n2)cc1 | 41% |  |
| 480 nM | 230 nM | CCCCN(CCCC)CCCOc1ccc(-c2csc(-c3ccc(OC)cc3)n2)cc1 | 4% |  |
| 340 nM | 240 nM | CCCCN(CCCC)CCCOc1ccc(-c2nc(-c3ccccc3)sc2CC)cc1 |  |  |
| 250 nM | 260 nM | CCCCN(CCCC)CCCOc1ccc(/C=C/c2nc3ccccc3s2)cc1 | 40% |  |
| 1650 nM | 880 nM | CCCCN(CCCC)CCCOc1ccc(-c2csc(-c3cccnc3)n2)cc1 | 19% |  |
| 130 nM | 120 nM | CCCCN(CCCC)CCCCOc1ccc(-c2csc(-c3ccccc3)n2)cc1 | 56% |  |
| 1500 nM | 3000 nM | CCCCN(CCCC)CCCOc1ccc(-c2csc(-c3ccc(C)cc3)n2)cc1 | 41% |  |
| 180 nM |  | CCCCN(CCCC)CCCCOc1ccc(/C=C/c2nc3ccccc3o2)cc1 |  | inhibition in vivo at 40 mg/kg (Rattus norvegicus [2]): 14%; IC50 [8]: < 10000 nM |
| 210 nM | 140 nM | CCCN(CCC)CCCOc1ccc(-c2nc3ccccc3s2)cc1 |  | inhibition in vivo at 40 mg/kg (Rattus norvegicus [9]): 42% |
| 490 nM | 860 nM | CCCCN(CCCC)CCCCCOc1ccc(-c2csc(-c3ccccc3)n2)cc1 | 54% |  |
| 450 nM | 420 nM | CCCCN(CCCC)CCCOc1ccc(-c2csc(-c3ccccc3)n2)cc1.Cl |  | ED50 (Rattus norvegicus [5]): 17 mg/kg; inhibition in vivo at 20 mg/kg (Rattus norvegicus [5]): 75% |
| 150 nM | 150 nM | CCCCN(CCCC)CCCOc1ccc(/C=C/c2nc3ccccc3o2)cc1 |  | inhibition in vivo at 40 mg/kg (Rattus norvegicus [2]): 96% |
| 270 nM | 230 nM | CCCCN(CCCC)CCCOc1ccc(-c2nc(-c3ccccc3)sc2C)cc1 |  | inhibition [10]: 65%; inhibition in vivo at 20 mg/kg (Rattus norvegicus [5]): 36% |
